Results from patent publication US20050009812A1, “Remedies for stress diseases comprising mitochondrial benzodiazepine receptor antagonists” (priority 2001, published 2005).

Experiments:
[1] = test system: stress-loaded male Wistar rats; experiment: Anti-stress effect: number of fecal pellets in psychological (water aversive) stress model; type: in vivo, rat; details: for number of fecal pellets: p.o., male Wistar rats, psychological (water aversive) stress, counted 1 h after start of stress loading, mean ± spread; for number of fecal pellets / effect on stress-induced increase in the number of fecal pellets: n=10/group; for effect on number of fecal pellets vs vehicle (significance, all doses): all tested p.o. doses vs vehicle, stress-loaded male Wistar rats; for effect on stress-induced increase in the number of fecal pellets: oral administration 30 min before stress loading, counted after 1 h
Protocol: Psychological stress was loaded to male Wistar rats (Brain Res., 641, 21-28 (1994)). Platform was located in the center of the container and water was collected to 10 cm in height. Thirty min after oral administration of vehicle or the compound, stress loading was started. One hour after, number of fecal pellets were counted (n=10/group). The rats without administration and stress-loading rarely defecated in 1 h.

[2] = test system: rat adrenocortical mitochondria; experiment: Determination of pregnenolone in rat adrenocortical mitochondria; type: biochemical; details: for Amount of pregnenolone production (%): 10 μmol/L, DMSO assumed 100, n=5; for MBR agonist or antagonist as judged by effect on pregnenolone production: compared with DMSO treated group; for pregnenolone content relative to DMSO treated group: final concentration of the compound 1 μmol/L
MBR [3] = target: T1, MBR (Rattus norvegicus, UniProt P16257); experiment: Receptor binding: [3H]PK11195 binding to rat brain membrane preparation; parameters: The brains without cerebellum were homogenized in ice-cold 50 mmol/L Tris-HCl buffer (pH7.4); from tissue; host or cells: male Wistar rat brain without cerebellum, crude membrane pellet; details: competition with [3H]PK11195 1 nmol/L, Cheng & Prusoff
Protocol: Experiment 1: Receptor Binding
The affinity of the compound to MBR was determined using rat brain membrane preparation. Male Wistar rats were decapitated. After extirpation of the brain, cerebellum was removed. The brains without cerebellum were homogenized in ice-cold 50 mmol/L Tris-HCl buffer (pH7.4). The homogenate was centrifuged at 12,000 g for 20 min (4° C.), then supernatant was discarded. The residual pellet was washed in the same buffer. The pellet resuspended in 50 mmol/L Tris-HCl buffer (pH7.4) and adjusted to about 1 mg/mL was used as the rat brain membrane preparation for binding assay.
To determine the amount of non-specific binding, 20 μmol/L of PK11195 was added in place of DMSO and incubate for 1 h. The reaction was terminated by rapid filtration on GF/B filter soaked with 0.3% polyethyleneimine using cell harvester, then the filter was washed twice with 50 mmol/L Tris-HCl buffer (pH7.4). After dried in the oven, the radioactivity on the filer was measured by liquid scintillation counter. The data were analyzed using analysis soft KELL (Ver.6, BIOSOFT).
To determine the amount of non-specific binding, 20 μmol/L of PK11195 was added in place of DMSO. And to determine the affinity of the invention, 10 pmol/L to 1 μmol/L of the compound dissolved in DMSO was added in place of DMSO. The reaction was terminated as above described, then radioactivity on the filer was measured by liquid scintillation counter. […] The inhibitory constant (Ki value) was derived according to the equation of Cheng & Prusoff (Biochem. Pharmacol., 22, 3099-3108, 1973).

MBR [4] = target: T1, MBR; experiment: MBR antagonist activity: FGIN1-27-stimulated pregnenolone production in rat adrenocortical mitochondria; type: biochemical; details: FGIN1-27 1 nmol/L; MBR antagonist 0.1 pmol/L to 1 μmol/L; FIGS. 1 and 2
From the text: Horizontal axis represents the concentrations of the compound.

Row | Structure (SMILES) | number of fecal pellets ([1]; 3 mg/kg) | number of fecal pellets ([1]; 30 mg/kg) | effect on stress-induced increase in the number of fecal pellets [1] | Amount of pregnenolone production (%) [2] [%] | MBR agonist or antagonist as judged by effect on pregnenolone production [2] | Ki (MBR [3]) [nM] | other results
1 | CCCN(CCC)C(=O)c1c(-c2ccc(Cl)cc2)nc2cc(Cl)cc(Cl)n12 [CB34, 5,7-dichloro-2-(4-chlorophenyl)-3-dipropylaminocarbonylimidazo[1,2-a]pyridine] | 10.2 ± 0.96 | 8.6 ± 1.00 | did not produce significant effects | 131.36 ± 5.38 | MBR agonists which increase pregnenolone production | – | number of fecal pellets ([1]; 10 mg/kg): 7.6 ± 0.93; effect on number of fecal pellets vs vehicle (significance, all doses) [1]: No significant effect in any dose.
2 | CCN(Cc1ccccc1)C(=O)Cn1c(=O)n(C)c2cnc(-c3ccccc3)nc21 [AC-5216, N-benzyl-N-ethyl-2-(7-methyl-8-oxo-2-phenyl-7,8-dihydro-9H-purin-9-yl)acetamide] | 7.5 ± 0.63 | 9.3 ± 0.94 | did not show an effect | 122.65 ± 7.56 | MBR agonists which increase pregnenolone production | – | number of fecal pellets ([1]; 0.3 mg/kg): 9.6 ± 0.74; effect on number of fecal pellets vs vehicle (significance, all doses) [1]: No significant effect in any dose.; effect on stress-induced increase in the number of fecal pellets ([1]; listed as AC-5261): did not produce significant effects; MBR agonist or antagonist as judged by effect on pregnenolone production ([2]; listed as N-benzyl-N-ethyl-2-(7-methyl-8-oxo-2-phenyl-7,8-dihydro-9H-purin-9-yl)acetamide): MBR antagonist
3 | Clc1ccc(Cl)c(Cc2nnnn2-c2cccc(Cl)c2Cl)c1 [2(71), 5-(2,5-dichlorobenzyl)-1-(2,3-dichlorophenyl)-1H-1,2,3,4-tetrazole] | – | – | – | – | – | 0.08 | –
4 | Fc1cccc(Cl)c1Cn1nnnc1-c1ccccc1C(F)(F)F [2(14), 1-(2-chloro-6-fluorobenzyl)-5-(2-trifluoromethylphenyl)-1H-1,2,3,4-tetrazole] | 6.6 ± 0.76 | 5.1 ± 0.78 | – | – | – | 3.3 | number of fecal pellets ([1]; 0.3 mg/kg): 6.1 ± 0.82; antagonistic effect on FGIN1-27-stimulated pregnenolone production (MBR [4]): antagonize the steroid production stimulated by MBR agonist; pregnenolone content relative to DMSO treated group [2]: 0.98 times
5 | O=C(NCc1ccc(F)cc1C(F)(F)F)c1cccc(Cl)c1Cl [1(16), N-(4-fluoro-2-trifluoromethylbenzyl)-2,3-dichlorobenzamide] | – | – | – | – | – | 0.19 | –
6 | O=C(NCc1cc(F)ccc1OCc1ccccc1)c1cccc(Cl)c1Cl [1(110), N-(2-benzyloxy-5-fluorobenzyl)-2,3-dichlorobenzamide] | – | – | – | – | – | 0.22 | –
7 | CCCCCCN(CCCCCC)C(=O)Cc1c(-c2ccc(F)cc2)[nH]c2ccccc12 [FGIN1-27, 2-[2-(4-fluorophenyl)-1H-indole-3-yl]-N,N-dihexylacetamide] | – | – | – | – | MBR agonists which increase pregnenolone production | – | pregnenolone content relative to DMSO treated group [2]: 1.37 times
8 | CN1C(=O)CN=C(c2ccc(Cl)cc2)c2cc(Cl)ccc21 [Ro5-4864, 7-chloro-5-(4-chlorophenyl)-1-methyl-2-oxo-2,3-dihydro-1H-benzodiazepine] | 8.9 ± 1.16 | 8.6 ± 0.91 | did not produce significant effects | 123.59 ± 5.41 | MBR agonists which increase pregnenolone production | – | number of fecal pellets ([1]; 10 mg/kg): 9.2 ± 0.98; effect on number of fecal pellets vs vehicle (significance, all doses) [1]: No significant effect in any dose.
9 | CCC(C)N(C)C(=O)c1cc2ccccc2c(-c2ccccc2Cl)n1 (stereo not shown) [PK11195, 1-(2-chlorophenyl)-N-methyl-N-(1-methylpropyl)-3-isoquinolinecarboxamide] | 6.6 ± 0.97 | 5.5 ± 0.81 | produced significant effects | 101.82 ± 1.64 | MBR antagonists which hardly effect on it | – | number of fecal pellets ([1]; 0.3 mg/kg): 6.4 ± 0.76; antagonistic effect on FGIN1-27-stimulated pregnenolone production (MBR [4]): antagonize the steroid production stimulated by MBR agonist
10 | Clc1cccc(Cc2nnnn2-c2cccc(Cl)c2Cl)c1Cl [2(74), 5-(2,3-dichlorobenzyl)-1-(2,3-dichlorophenyl)-1H-1,2,3,4-tetrazole] | – | – | – | – | – | 0.16 | –
11 | Clc1cccc(-c2nnnn2Cc2cc(Cl)ccc2OCc2ccccc2)c1 [2(105), 1-(2-benzyloxy-5-chlorobenzyl)-5-(3-chlorophenyl)-1H-1,2,3,4-tetrazole] | – | – | – | – | – | 0.73 | –
